The values that follow are results of earlier work, collected in US12662707B2, “MYC amplification drives resistance to pan-RAS inhibitors in pancreatic cancer” (The Trustees of Columbia University in the City of New York, priority 2024, dated 2026).

The data set relates to autochthonous KPC pancreatic tumors. Conditions: reference 27; cited from earlier work.

For `Nc1ccn([C@@H]2O[C@H](CO)[C@@H](O)C2(F)F)c(=O)n1` [gemcitabine], the “effect on survival in the KPC model” value was “do not significantly alter survival”.
